Experimental data from patent US5262537A, “Derivatives of 4,5,6,7-tetrahydroimidazo-[4,5-c]pyridinyl-6-carboxylic acid” (priority 1993, dated 1993).
Counter-ions that a name gives are not always drawn. Like-named read-outs stand apart in the source and are kept apart here.

Tests used:
5-HT3 = target: T1, 5-HT3 (Rattus norvegicus, UniProt P35563); assay: biochemical; type: binding, Male Sprague-Dawley rats
T1 sequence (P35563 24-483): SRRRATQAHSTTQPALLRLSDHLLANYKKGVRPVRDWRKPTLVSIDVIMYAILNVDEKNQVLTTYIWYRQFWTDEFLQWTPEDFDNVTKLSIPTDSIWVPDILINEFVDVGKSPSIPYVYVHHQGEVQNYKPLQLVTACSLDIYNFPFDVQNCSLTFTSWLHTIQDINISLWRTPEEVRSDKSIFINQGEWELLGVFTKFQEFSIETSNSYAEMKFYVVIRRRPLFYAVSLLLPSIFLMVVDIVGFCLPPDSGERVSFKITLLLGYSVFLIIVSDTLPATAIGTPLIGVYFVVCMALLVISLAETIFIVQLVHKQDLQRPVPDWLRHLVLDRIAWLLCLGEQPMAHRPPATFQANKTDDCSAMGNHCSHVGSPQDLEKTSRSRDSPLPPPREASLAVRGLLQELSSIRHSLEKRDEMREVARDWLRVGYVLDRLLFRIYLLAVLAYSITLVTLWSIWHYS
Protocol: A number of compounds in accordance with the present invention were tested for their 5-HT3 and D2 binding affinities in accord with the following procedures.
Male Sprague-Dawley rats (175-220 g) were sacrificed by decapitation and their brains removed rapidly. The entorhinal cortex was used for the 5-HT3 (5-hydroxytryptamine) binding assay and the remainder of the brain, minus the brain stem and cerebellum, was used for the D2 (dopamine) binding assay. The entorhinal cortex was harvested and prepared on the day of the assay.
The entorhinal cortex was homogenized in 20 volumes of cold 50 mM HEPES buffer, pH 7.4, while the remaining brain tissue was homogenized in 20 volumes of cold 50 mM Tris, pH 7.4. The homogenates were centrifuged at 4800×g for 15 minutes at 5° C. and the supernatants decanted. Pellets were resuspended in the original volume of HEPES or Tris. Homogenates were centrifuged and the supernatants decanted. Pellets were resuspended in the same volume of HEPES or Tris and incubated at 37° C. for 45 minutes to remove endogenous neurotransmitters. Homogenates were centrifuged and the supernatants were decanted. Pellets for D2 assays were stored at -50° C. until the day of the assay. The pellets for the 5-HT3 assay (entorhinal cortex) were resuspended in the appropriate amount of HEPES buffer and used promptly. Modifications of published assays for [^3 H]GR65630 (Kilpatrick et al., Nature: 330, 746-748 (1987)) and [^3 H]raclopride (Dewar et al., J. Pharmacol. Exp. Ther.: 250, 696-706 (1989) and Lidow et al., Proc. Natl. Acad. Sci. USA: 86, 6412-6416 (1989)) were used for the 5-HT3 and D2 binding assays, respectively.
Briefly, 0.25 ml of homogenate was incubated with either 0.2 nM of [^3 H]GR65630 or 1.0 nM of [^3 H]raclopride in a final volume of 0.5 ml. D2 binding also requires sodium chloride and potassium chloride (120 mM and 5 mM, final concentration, respectively). In the 5-HT3 assay, non-specific binding was defined in the presence of 100 uM quipazine. In the D2 assay, non-specific binding was defined in the presence of 100 uM of (+/-) sulpiride. Both assays were incubated at room temperature; [^3 H]GR65630 for 40 minutes and [^3 H]raclopride for 60 minutes. Test compounds (0.1 ml) were added to incubates where appropriate. Bound ligand was separated from free ligand by filtration and quantified using liquid scintillation spectrophotometry. IC50 values were calculate for all test compounds.

Ferret = assay: Cisplatin Ferret Assay--Antiemetic Screening; type: in vivo, Male ferrets; details: for inhibition in vivo at 0.1 mg/kg / ED50: Mustela putorius, iv, 4 h; for inhibition in vivo at 0.1 mg/kg: read-out: Ferret Cisplatin Test % Prot, 0.1 mg/Kg; for ED50: read-out: Ferret Cisplatin Test ED50
Protocol: Male ferrets (castrated, descented, 1-2 kg) were purchased from Triple F Farms, Syre, Pa. Ferrets were housed four in a cage with a 12 hour light cycle and were fed ad libitum with Ralston Purina Cat Chow. Each ferret was used unfasted for the assay after a minimum of a 24 hour acclimation time in animal facility.
Ferret Preparation. Each ferret was anesthetized with 5% isoflurane-O2in a 20 gallon aquarium for 2 to 5 minutes. After removal of the anesthetic gas, the animals were removed and weighed. Injections were made into the dorsal front paw vein using a tourniquet and a 1 ml tuberculin syringe with a 25 g needle while the animal was maintained under anesthesia using a small nose cone delivering 5% isoflurane-O2. Cisplatin was injected using a 3 ml or 5 ml syringe in the opposite paw from the study compound or saline. Recovery time from anaesthesia was 5 to 8 minutes.
Drug Preparation. Cisplatin bulk powder was weighed and dissolved in normal saline at 75° C. to provide a 5 mg/ml solution (90 mg was placed in a scintillation vial and qs with 18 ml saline). The solution was stirred and maintained at 40° C. until ready for use. The study drug was weighed and dissolved in normal saline at room temperature to provide a 1 mg/ml solution (10 mg was placed in a scintillation vial and qs with 10 ml saline). Suspensions were heated to 40° C. to bring the study compound into solution. Compounds not soluble under these conditions were not assayed.
Assay. Cisplatin was injected i.v. at 10 mg/kg into twelve anesthetized ferrets daily at time zero. Normal saline (0.5 ml) or the study compound (0.1 or 1.0 mg/kg) was injected 30 minutes later in groups of three anesthetized ferrets. Order of treatment and treatment dose was selected at random, with the remaining treatment dose assayed in the next experiment.
Experimental Observations and Data Collection. Ferrets were viewed individually. The time and number of emetic episodes were recorded for four hours. Zero time was equivalent to the time of cisplatin injection. […] Retches were recorded but not counted. The total number of episodes for each of the four groups of three ferrets (+/-S.E.) was averaged and the effect of treatment (% protection) was calculated as the percent reduction of emetic episodes compared to controls. [formula]
Percent protection values were determined from experimental controls. Experimental controls were those obtained from the day of the experiment. Onset times of the first episode were averaged and recorded for each group. Prodromal signs (lip licking, slit eyes, head shaking, salivation, scratching, clawing, walking backward, sedation, urination, and defecation) were also averaged and recorded.

[1] = 0.2 nM [3H]GR65630, rat entorhinal cortex, 40 minutes, room temperature, read-out: 5-HT3 IC50
[2] = 0.1 mg/kg i.v., 30 minutes after cisplatin 10 mg/kg i.v., percent reduction of emetic episodes vs controls, four hours
[3] = i.v., 30 minutes after cisplatin 10 mg/kg i.v., emetic episodes over four hours

Row | Structure (SMILES) | IC50 (5-HT3; [1]) | inhibition in vivo at 0.1 mg/kg (Ferret; [2]) | ED50 (Ferret; [3]) | Ferret Cisplatin Test % Prot, 0.1 mg/Kg (Ferret; [2]) | IC50 (5-HT3) | inhibition in vivo at 0.1 mg/kg (Ferret) | ED50 (Ferret)
1 | CN1Cc2nc[nH]c2C[C@@H]1C(=O)Nc1ccccc1O [Compd 1] | 10.9 nM | 73% | 0.063 mg/kg | – | – | – | –
2 | COc1ccc(Cl)cc1NC(=O)[C@H]1Cc2[nH]cnc2CN1C [Compd 2] | 10 nM | 31% | 0.4 mg/kg | – | – | – | –
3 | COc1ccccc1NC(=O)[C@H]1Cc2[nH]cnc2CN1C [Compd 3] | 47.6 nM | 9% | 2.08 mg/kg | – | – | – | –
4 | COC(=O)c1ccccc1NC(=O)[C@H]1Cc2[nH]cnc2CN1C [Compd 4] | 12.1 nM | 33% | 0.1 mg/kg | – | – | – | –
5 | CC(=O)c1ccccc1NC(=O)[C@H]1Cc2[nH]cnc2CN1C [Compd 5] | 4.26 nM | 22% | 0.123 mg/kg | – | – | – | –
6 | COc1ccccc1NC(=O)[C@@H]1Cc2[nH]cnc2CN1C [Compd 6] | 4.86 nM | 77% | 0.023 mg/kg | – | – | – | –
7 | COc1ccc(Cl)cc1NC(=O)[C@@H]1Cc2[nH]cnc2CN1C [Compd 7] | 6.26 nM | 57% | 0.14 mg/kg | – | – | – | –
8 | COc1ccccc1NC(=O)[C@H]1Cc2[nH]cnc2CN1 [Compd 8] | 10.4 nM | 62% | – | – | – | – | –
9 | CN1Cc2nc[nH]c2C[C@@H]1C(=O)Nc1ccccc1 [Compd 9] | 57.2 nM | 26% | 0.33 mg/kg | – | – | – | –
10 | CCOc1ccccc1NC(=O)[C@H]1Cc2[nH]cnc2CN1C [Compd 10] | 4.14 nM | 29% | 0.31 mg/kg | – | – | – | –
11 | CN1Cc2nc[nH]c2C[C@@H]1C(=O)Nc1ccccc1Oc1ccccc1 [Compd 11] | 8.19 nM | 15% | 0.47 mg/kg | – | – | – | –
12 | CN1Cc2[nH]cnc2C[C@@H]1C(=O)Nc1nccs1 [Compd 12] | 273 nM | – | – | 40% | – | – | –
13 | CN1Cc2nc[nH]c2C[C@@H]1C(=O)Nc1nc2ccccc2s1 [Compd 13, (R)-6-(2-benzothiazolylaminocarbonyl)-5-methyl-4,5,6,7-tetrahydroimidazo[4,5-c]pyridine] | 71.5 nM | 76% | 0.074 mg/kg | – | – | – | –
14 | COc1ccccc1NC(=O)[C@@H]1Cc2[nH]cnc2CN1 [Compd 14, (S)-6-(2-methoxyphenyl)aminocarbonyl-4,5,6,7-tetrahydroimidazo[4,5-c]pyridine] | 8.53 nM | 48% | 0.062 mg/kg | – | – | – | –
15 | CN1Cc2nc[nH]c2C[C@H]1C(=O)Nc1ccccc1O [Compd 15, (S)-6-(2-hydroxyphenylaminocarbonyl)-5-methyl-4,5,6,7-tetrahydroimidazo[4,5-c]pyridine] | 62.4 nM | 99% | 0.007 mg/kg | – | – | – | –
16 | COC(=O)c1ccccc1NC(=O)[C@@H]1Cc2[nH]cnc2CN1C [Compd 16] | 29 nM | 42% | 0.01 mg/kg | – | – | – | –
17 | CCOc1ccccc1NC(=O)[C@@H]1Cc2[nH]cnc2CN1C [Compd 17] | 15.4 nM | 58% | 0.2 mg/kg | – | – | – | –
18 | CCN1Cc2nc[nH]c2C[C@H]1C(=O)Nc1ccccc1O [Compd 18] | 17.6 nM | 46% | 0.16 mg/kg | – | – | – | –
19 | CN1Cc2nc[nH]c2C[C@@H]1C(=O)c1ccccc1 [Compd 19, (R)-6-benzoyl-5-methyl-4,5,6,7-tetrahydroimidazo[4,5-c]pyridine] | – | – | – | – | 58.5 nM | 8% | –
20 | COc1ccccc1NC(=O)[C@@H]1Cc2nc[nH]c2C(C)(C)N1 [Compd 20] | 21.7 nM | – | 0.008 mg/kg | 72% | – | – | –

Row | Structure (SMILES) | IC50 (5-HT3; [1]) | inhibition in vivo at 0.1 mg/kg (Ferret; [2]) | ED50 (Ferret; [3]) | Ferret Cisplatin Test % Prot, 0.1 mg/Kg (Ferret; [2]) | IC50 (5-HT3) | inhibition in vivo at 0.1 mg/kg (Ferret) | ED50 (Ferret)
21 | CN1Cc2nc[nH]c2C[C@@H]1C(=O)Nc1cccc2nsnc12 [Compd 21] | 1.98 nM | 24% | 0.39 mg/kg | – | – | – | –
22 | CN1Cc2nc[nH]c2C[C@H]1C(=O)Nc1nc2ccccc2s1 [Compd 22] | 37.2 nM | 14% | – | – | – | – | –
23 | CN1Cc2nc[nH]c2C[C@H]1C(=O)Nc1cccc2nsnc12 [Compd 23] | 15.9 nM | 100% | 0.016 mg/kg | – | – | – | –
24 | CN1[C@H](C(=O)Nc2ccccc2O)Cc2[nH]cnc2C1(C)C [Compd 24] | 47.2 nM | 48% | 0.025 mg/kg | – | – | – | –
25 | COc1ccccc1NC(=O)[C@@H]1Cc2[nH]cnc2C(C)(C)N1C [Compd 25] | 14.1 nM | 93% | 0.026 mg/kg | – | – | – | –
26 | CN1Cc2nc[nH]c2C[C@H]1C(=O)Nc1ccccc1NC(=O)c1ccccc1 [Compd 26] | 289 nM | 0% | – | – | – | – | –
27 | CN1Cc2nc[nH]c2C[C@H]1C(=O)Nc1ccccc1Oc1ccccc1.Cl.Cl [Compd 27, (S)-5-methyl-6-(2-phenoxyphenylaminocarbonyl)-4,5,6,7-tetrahydroimidazo[4,5-c]pyridine dihydrochloride] | 6.92 nM | 72% | 0.031 mg/kg | – | – | – | –
28 | CN1Cc2nc[nH]c2C[C@H]1C(=O)c1cccs1 [Compd 28] | 648 nM | – | – | – | – | 0% | –
29 | CN1Cc2nc[nH]c2C[C@H]1C(=O)Nc1ccccc1F [Compd 29] | 335 nM | 88% | 0.024 mg/kg | – | – | – | –
30 | COc1ccc(OC)c(NC(=O)[C@@H]2Cc3nc[nH]c3CN2C)c1 [Compd 30, (S)-6-(2,5-dimethoxyphenylaminocarbonyl)-5-methyl-4,5,6,7-tetrahydoimidazo[4,5-c]pyridine dihydrochloride] | 69.7 nM | 5% | – | – | – | – | –
31 | CN1Cc2nc[nH]c2C[C@H]1C(=O)Nc1cccc(F)c1F [Compd 31] | 644 nM | 91% | 0.068 mg/kg | – | – | – | –
32 | CN1Cc2nc[nH]c2C[C@H]1C(=O)c1cc2ccccc2s1 [Compd 32, 6-(2-benzo[b]thiophenylcarbonyl)-5-methyl-4,5,6,7-tetrahydroimidazo[4,5-c]pyridine] | 234 nM | – | – | – | – | 41% | 0.11 mg/kg
33 | CN1Cc2nc[nH]c2C[C@H]1C(=O)c1cc2ccccc2o1 [Compd 33, 6-(2-benzo[b]furanylcarbonyl)-5-methyl-4,5,6,7-tetrahydroimidazo[4,5-c]pyridine] | 2020 nM | – | – | – | – | 31% | 0.43 mg/kg
34 | CN1Cc2nc[nH]c2C[C@H]1C(=O)Nc1c(F)cccc1F [Compd 34] | 612 nM | 59% | 0.15 mg/kg | – | – | – | –
35 | CN1Cc2nc[nH]c2C[C@H]1C(=O)Nc1ccc(F)c(F)c1F [Compd 35] | 160 nM | 20% | 0.19 mg/kg | – | – | – | –
36 | CN1Cc2nc[nH]c2C[C@H]1C(=O)Nc1cccc2c1NCCC2 [Compd 36] | 103 nM | 70% | 0.081 mg/kg | – | – | – | –
37 | COc1ccccc1NC(=O)[C@@H]1Cc2[nH]cnc2CN1C(C)=O [Compd 47, (S)-5-acetyl-6-(2-methoxyphenylaminocarbonyl)-4,5,6,7-tetrahydroimidazo[4,5-c]pyridine] | – | 81% | 0.044 mg/kg | – | – | – | –
38 | CN1C2CCCC1CC(NC(=O)c1nn(C)c3ccccc13)C2 (centres unmarked) [Granisetron, reference compound] | – | 71% | 0.03 mg/kg | – | – | – | –
39 | Cc1nccn1CC1CCc2c(c3ccccc3n2C)C1=O (centres unmarked) [Ondansetron, reference compound] | – | 77% | 0.041 mg/kg | – | – | – | –
